Values quoted from earlier work, collected in patent US20210137911A1, “NOVEL CHRONOTHERAPY BASED ON CIRCADIAN RHYTHMS” (THE TRUSTEES OF THE UNIVERSITY OF PENNSYLVANIA, priority 2014, published 2021).

Details: half-life of therapeutic compound as listed in Table 1; cited from earlier work

SMILES	½ Life [h]
O=[N+]([O-])[O-].O=[N+]([O-])[O-].O=[N+]([O-])[O-].[Ga+3] [Gallium nitrate]	1
O=C(O)CCCO [Gamma Hydroxybutyric Acid]	0.5
CC(=O)[C@H]1CC[C@H]2[C@@H]3CC[C@H]4C[C@](C)(O)CC[C@]4(C)[C@H]3CC[C@]12C [Ganaxolone]	1.3
Nc1ccn([C@@H]2O[C@H](CO)[C@@H](O)C2(F)F)c(=O)n1 [Gemcitabine]	0.7
Cc1ccc(C)c(OCCCC(C)(C)C(=O)O)c1 [Gemfibrozil, reference compound]	1.5
CCC1=C(C)CN(C(=O)NCCc2ccc(S(=O)(=O)NC(=O)N[C@H]3CC[C@H](C)CC3)cc2)C1=O [Glimepiride]	5
Cc1cnc(C(=O)NCCc2ccc(S(=O)(=O)NC(=O)NC3CCCCC3)cc2)cn1 [Glipizide]	2
COc1ccc(Cl)cc1C(=O)NCCc1ccc(S(=O)(=O)NC(=O)NC2CCCCC2)cc1 [Glyburide]	1.4
COCCOc1cnc(NS(=O)(=O)c2ccccc2)nc1 [Glycodiazine]	4
C[N+]1(C)CCC(OC(=O)C(O)(c2ccccc2)C2CCCC2)C1 (stereo not shown) [Glycopyrrolate]	0.6
CC(C)C[C@H](NC(=O)[C@@H](COC(C)(C)C)NC(=O)[C@H](Cc1ccc(O)cc1)NC(=O)[C@H](CO)NC(=O)[C@H](Cc1c[nH]c2ccccc12)NC(=O)[C@H](Cc1cnc[nH]1)NC(=O)[C@@H]1CCC(=O)N1)C(=O)N[C@@H](CCCNC(=N)N)C(=O)N1CCC[C@H]1C(=O)NNC(N)=O [Goserelin]	4
CC(=O)Oc1ccc2c3c1O[C@H]1[C@@H](OC(C)=O)C=C[C@H]4[C@@H](C2)N(C)CC[C@@]341 [Heroin]	0.166
NNc1nncc2ccccc12 [Hydralazine]	3
NC(=O)NO [Hydroxyurea]	3
CC#CCC(C)[C@H](O)/C=C/[C@@H]1[C@H]2C/C(=C/CCCC(=O)O)C[C@H]2C[C@H]1O (stereo partly shown) [Iloprost]	0.333
CC(C)[N+]1(C)[C@@H]2CC[C@H]1CC(OC(=O)C(CO)c1ccccc1)C2.[Br-] (stereo partly shown) [Ipratropium bromide]	2
NNC(=O)c1ccncc1 [Isoniazid]	0.5
O=[N+]([O-])O[C@H]1CO[C@H]2[C@@H]1OC[C@H]2O[N+](=O)[O-] [Isosorbide Dinitrate]	1
O=[N+]([O-])O[C@@H]1CO[C@H]2[C@@H]1OC[C@@H]2O [Isosorbide Mononitrate]	5
CC(=O)N1CCN(c2ccc(OCC3COC(Cn4ccnc4)(c4ccc(Cl)cc4Cl)O3)cc2)CC1 (stereo not shown) [Ketoconazole]	2
O=C(c1ccccc1)c1ccc2n1CCC2C(=O)O (stereo not shown) [Ketorolac]	2.5
Cc1c(OCC(F)(F)F)ccnc1C[S+]([O-])c1nc2ccccc2[nH]1 (stereo not shown) [Lansoprazole]	1.5
CC(C)OC(=O)CCC/C=C\C[C@@H]1[C@@H](CC[C@@H](O)CCc2ccccc2)[C@H](O)C[C@@H]1O [Latanoprost]	0.283
Nc1cccc2c1CN(C1CCC(=O)NC1=O)C2=O (stereo not shown) [Lenalidomide]	3

SMILES	½ Life [h]
C=CCN1CC[C@]23CCCC[C@H]2[C@H]1Cc1ccc(O)cc13 [Levallorphan]	1
c1ccc([C@H]2CN3CCSC3=N2)cc1 [Levamisole]	4.4
C[C@@H]1CC(=O)NN=C1c1ccc(NN=C(C#N)C#N)cc1 [Levosimendan]	1
CN1C(C(=O)Nc2ccccn2)=C(O)c2sc(Cl)cc2S1(=O)=O [Lornoxicam]	3
CCCCc1nc(Cl)c(CO)n1Cc1ccc(-c2ccccc2-c2nn[nH]n2)cc1 [Losartan, reference compound]	1
CC[C@H](C)C(=O)O[C@H]1C[C@@H](C)C=C2C=C[C@H](C)[C@H](CC[C@@H]3C[C@@H](O)CC(=O)O3)[C@H]21 [Lovastatin]	5.3
CN1CCN(C2=Nc3ccccc3Oc3ccc(Cl)cc32)CC1 [Loxapine]	4
COC(=O)Nc1nc2ccc(C(=O)c3ccccc3)cc2[nH]1 [Mebendazole]	2.5
Cc1cccc(Nc2ccccc2C(=O)O)c1C [Mefenamic acid]	2
COc1ccc2[nH]cc(CCNC(C)=O)c2c1 [Melatonin]	0.5833
CN[C@@H](C)Cc1ccccc1 [Methamphetamine]	4
Cn1cc[nH]c1=S [Methimazole]	5
CN1C(=O)CC(C)(c2ccccc2)C1=O (stereo not shown) [Methsuximide]	1.4
C[C@H]1C[C@@H]2[C@H]([C@@H](O)C[C@@]3(C)[C@H]2CC[C@]3(O)C(=O)CO)[C@@]2(C)C=CC(=O)C=C12 [Methylprednisolone]	1
OCCN1C[C@H](O)[C@@H](O)[C@H](O)[C@H]1CO [Miglitol]	2
Cc1[nH]c(=O)c(C#N)cc1-c1ccncc1 [Milrinone]	2.3
COc1cc2c(cc1OC)[C@@H](Cc1cc(OC)c(OC)c(OC)c1)[N+](C)(CCCOC(=O)CC/C=C/CCC(=O)OCCC[N+]1(C)CCc3cc(OC)c(OC)cc3[C@H]1Cc1cc(OC)c(OC)c(OC)c1)CC2 (stereo partly shown) [Mivacurium]	1.7
O=C(NCCN1CCOCC1)c1ccc(Cl)cc1 [Moclobemide]	1
CCOC(=O)[C@H](CCc1ccccc1)N[C@@H](C)C(=O)N1Cc2cc(OC)c(OC)cc2C[C@H]1C(=O)O [Moexipril]	1
C[C@@H]1C[C@H]2[C@@H]3CCC4=CC(=O)C=C[C@]4(C)[C@@]3(Cl)[C@@H](O)C[C@]2(C)[C@@]1(O)C(=O)CCl [Mometasone]	5.8
CCOC(=O)Nc1ccc2c(c1)N(C(=O)CCN1CCOCC1)c1ccccc1S2 [Moricizine]	2
CCCCCCC(C)(C)c1cc(O)c2c(c1)OC(C)(C)C1CCC(=O)CC21 (stereo not shown) [Nabilone]	2
C=CCN1CC[C@]23c4c5ccc(O)c4O[C@H]2C(=O)CC[C@@]3(O)[C@H]1C5 [Naloxone]	0.5
CNS(=O)(=O)CCc1ccc2[nH]cc(C3CCN(C)CC3)c2c1 [Naratriptan]	5

Same assay, conditions: in vivo; cited from earlier work

SMILES	½ Life [h]
NCC1(CC(=O)O)CCCCC1 [Gabapentin]	5
CC(C)C[C@H](NC(=O)CNC(=O)[C@H](Cc1ccc(O)cc1)NC(=O)[C@H](CO)NC(=O)[C@H](Cc1c[nH]c2ccccc12)NC(=O)[C@H](Cc1cnc[nH]1)NC(=O)[C@@H]1CCC(=O)N1)C(=O)N[C@@H](CCCNC(=N)N)C(=O)N1CCC[C@H]1C(=O)NCC(N)=O [Gonadorelin]	0.033
NS(=O)(=O)c1cc2c(cc1Cl)NCNS2(=O)=O [Hydrocholorthiazide, reference compound]	5.6
COc1ccc2c3c1O[C@H]1C(=O)CC[C@H]4[C@@H](C2)N(C)CC[C@]314 [Hydrocodone]	1.25
NC(N)=NCCC[C@@H](N)C(=O)N[C@@H](CCCN=C(N)N)C(=O)N1CCC[C@H]1C(=O)N1C[C@H](O)C[C@H]1C(=O)NCC(=O)N[C@@H](Cc1cccs1)C(=O)N[C@@H](CO)C(=O)N1Cc2ccccc2C[C@@H]1C(=O)N1[C@H](C(=O)N[C@@H](CCCN=C(N)N)C(=O)O)C[C@@H]2CCCC[C@@H]21 [Icatibant]	1.4
CNC1(c2ccccc2Cl)CCCCC1=O (stereo not shown) [Ketamine]	2.5
CCC(=O)C1(c2cccc(O)c2)CCN(C)CC1 [Ketobemidone]	2.42
N[C@@H](Cc1ccc(O)c(O)c1)C(=O)O [L-DOPA]	0.833
CCNC(=O)[C@@H]1CCCN1C(=O)[C@H](CCCNC(=N)N)NC(=O)[C@H](CC(C)C)NC(=O)[C@@H](CC(C)C)NC(=O)[C@H](Cc1ccc(O)cc1)NC(=O)[C@H](CO)NC(=O)[C@H](Cc1c[nH]c2ccccc12)NC(=O)[C@H](Cc1c[nH]cn1)NC(=O)[C@@H]1CCC(=O)N1 [Leuprolide]	3
COC(=O)C(c1ccccc1)C1CCCCN1 (stereo not shown) [Methylphenidate]	3
COc1ccc2cc1Oc1cc3c(cc1OC)CC[N+](C)(C)[C@H]3Cc1ccc(cc1)Oc1c(OC)c(OC)cc3c1[C@@H](C2)[N+](C)(C)CC3 [Metocurine Iodide]	3
Cc1ncc2n1-c1ccc(Cl)cc1C(c1ccccc1F)=NC2 [Midazolam]	1.8
Nc1cc(N2CCCCC2)nc(N)[n+]1[O-] [Minoxidil]	4.2
CC(C)(O)c1ccccc1CC[C@@H](SCC1(CC(=O)O)CC1)c1cccc(/C=C/c2ccc3ccc(Cl)cc3n2)c1 [Montelukast]	2.7
CN1CC[C@]23c4c5ccc(O)c4O[C@H]2[C@@H](O)C=C[C@H]3[C@H]1C5 [Morphine]	2
CC(C)C[C@H](NC(=O)[C@@H](Cc1ccc2ccccc2c1)NC(=O)[C@H](Cc1ccc(O)cc1)NC(=O)[C@H](CO)NC(=O)[C@H](Cc1c[nH]c2ccccc12)NC(=O)[C@H](Cc1c[nH]cn1)NC(=O)[C@@H]1CCC(=O)N1)C(=O)N[C@@H](CCCNC(=N)N)C(=O)N1CCC[C@H]1C(=O)NCC(N)=O [Nafarelin]	3

Same assay, conditions: see Table 1; cited from earlier work

SMILES	half-life	minimum reported half-life
Cc1ccc(C)c(OCCCC(C)(C)C(=O)O)c1 [Gemfibrozil, reference compound]	one and a half	one and a half
NS(=O)(=O)c1cc2c(cc1Cl)NCNS2(=O)=O [Hydrocholorthiazide, reference compound]	5.6 h	
